Assays:
Format in all cases: cell-based
ERK phosphorylation = assay: Western blot analysis of total and phosphorylated proteins; conditions: all tested cell lines
SK-Mel28 = assay: Short-term growth-inhibition assay, PLX-4720 (Example 1); conditions: Homo sapiens, SK-MEL-28; SK-Mel28 cell line; read-out: half-maximum inhibitory concentration (IC50)
Protocol: (§1) FIGS. 1A-1B: Short-term growth-inhibition assay of a panel of melanoma cell lines including BRAF (V600E) cell lines and an NRAS (Q61R) mutated cell line. FIG. 1A. Cells were treated with increasing concentrations of N-[3-[(5-Chloro-1H-pyrrolo[2,3-b]pyridin-3-yl)carbonyl]-2,4-difluorophenyl]-1-propanesulfonamide (PLX-4720) for 72 h and cell viability was determined using CellTiter-Blue by measuring the absorbance at 540 nm in a microplate reader. Error bars show data +standard error. Means were derived from four replicates (n=4). FIG. 1B. Long-term colony formation assay of the indicated cells. Cells were grown in the absence or presence of PLX-4720 at the indicated concentrations for 15-20 days. For each cell line, all dishes were fixed at the same time, stained and photographed.
(§2) Cell proliferation was measured using a WST-1 reagent (Roche Applied Science, IN, USA). Melanoma cells were plated with 5000 cells per well in 96-well tissue culture plates. After 24 hours, the cells were treated with drugs or DMSO at the indicated concentrations, in triplicates. WST-1 reagent was added to the wells and incubated at 37° C. for 2 hours before and after the treatment period of 48 hours. The plates were then read at 450 nm on a Wallac Victor^3 1420 Multilabel Counter (Perkin Elmer, ON, Canada). Absorbance readings are expressed in terms of cell proliferation as percent of the control cells growth within the 48 hours of treatment.
(§3) The inventors quantified the effect of exposing these cell lines to PLX-4720 on the half-maximum inhibitory concentration (IC50) (Table 1).

SK-Mel5 = assay: as above; conditions: Homo sapiens, SK-MEL-5; SK-Mel5 cell line; read-out: half-maximum inhibitory concentration (IC50)
Protocol: as §1, §2, §3

Mel888 = assay: as above; conditions: Mel888 cell line; read-out: half-maximum inhibitory concentration (IC50)
Protocol: as §1, §2, §3

Mel10 = assay: as above; conditions: Mel10 cell line; read-out: half-maximum inhibitory concentration (IC50)
Protocol: as §1, §2, §3

A375 = assay: as above; conditions: Homo sapiens, A-375; A375 cell line; read-out: half-maximum inhibitory concentration (IC50)
Protocol: as §1, §2, §3

`CCCS(=O)(=O)Nc1ccc(F)c(C(=O)c2c[nH]c3ncc(Cl)cc23)c1F` [PLX-4720, N-[3-[(5-Chloro-1H-pyrrolo[2,3-b]pyridin-3-yl)carbonyl]-2,4-difluorophenyl]-1-propanesulfonamide] was tested, and the “ERK phosphorylation downstream of BRAF” value (ERK phosphorylation) was “inhibited ERK phosphorylation”, the IC50 (SK-Mel28) was 400 nM and the IC50 (SK-Mel5) was 1500 nM. It also gave an IC50 (Mel888) of 100 nM, an IC50 (Mel10) of over 10000 nM and an IC50 (A375) of 400 nM.

— patent publication US20240393340A1, “PROGNOSIS AND PREDICTIVE BIOMARKERS AND BIOLOGICAL APPLICATIONS THEREOF” (INSTITUT GUSTAVE ROUSSY, priority 2013, published 2024)
